Patent US9512108B2, “9,9,10,10-Tetrafluoro-9,10-dihydrophenanthrene hepatitis C virus inhibitor and application thereof” (NANJING SANHOME PHARMACEUTICAL CO., LTD., priority 2013, dated 2016)

Assays:
Type in all cases: cell-based
HCV genotype 1b replicon = assay: Anti-HCV-1b replicon activity (luciferase, Bright-Glo); details: Hepatitis C virus, Huh-7, 72 h, read-out: EC50 against HCV-1b replicon
Method: (§1) Each of the compounds prepared in the above examples of the present invention was dissolved at 10 mM in DMSO, then diluted to 50 μM with DMEM complete medium, then diluted to 20 nM with complete medium containing 0.5% DMSO, and then serially diluted by 3-fold, to obtain a total of 10 concentrations.
(§2) HCV 1b replicon cells, i.e., Huh7 cell line stably transfected with HCV genotype 1b replicon, were provided by WuXi AppTec (Shanghai) Co., Ltd. Specific preparation methods of Huh7 lb replicon cell system can be found in Lohmann V, Korner F, Koch J, Herian U, Theilmann L, Bartenschlager R., Replication of subgenomic hepatitis C virus RNAs in a hepatoma cell line, Science 285 (5424): 110-113 (1999).
(§3) 1) Preparation of compounds: adding 75 μl of the compounds of the present invention at the above concentration gradient to a 96-well plate using POD810 system, with each concentration for each compound in duplicate;
(§4) 2) Preparation of cells: collecting HCV 1b replicon cells in logarithmic phase and resuspending them in DMEM complete medium, and then adding 75 μl of the cell suspension to each well of the above 96-well plate (8×10^3 cells/well); at the same time, establishing zero percent effect (ZPE) control group and hundred percent effect (HPE) control group, with ZPE group using complete culture medium containing 0.5% DMSO instead of the compound, and the HPE group merely containing DMEM medium in the wells.
(§5) 3) Cell culture: placing the 96-well plate in a 37° C., 5% CO2 incubator and culturing for 3 days.
(§6) 5) Anti-HCV replicon activity assay: adding luciferase luminescence substrate Bright-Glo to each well, and detecting luminescence signal values using the multimode microplate reader within 5 min, with the raw data (RLU) being used for calculation of the anti-HCV activities of the compounds;
(§7) 6) Data processing: processing the raw data using the following formula into the inhibition percentage of the compound against HCV replicon (Inhibition %) and the percentage of cell viability (Viability %): Inhibition %=(RLUZPE−RLUCPD)/(RLUZPE−RLUHPE)×100 Viability %=(RFUCPD−RFUHPE)/(RFUZPE−RFUHPE)×100 wherein CPD: the fluorescence signal value of the well of the compound; ZPE (zero percent effect): the fluorescence signal value of the zero percent effect control; HPE (hundred percent effect): the fluorescence signal value of the hundred percent effect control.
(§8) The Inhibition % and Viability % were introduced into GraphPad Prism software for data processing, respectively, to obtain the half effective concentration EC50 of the compound against HCV replicon and the half cytotoxic concentration CC50.

[1] = Cell viability test (CellTiter-Fluor) in HCV 1b replicon cells; details: human, HCV 1b replicon Huh7 cells, 3 days culture, read-out: CC50 (half cytotoxic concentration)
Method: as §1, §2, §3, §4, §5
(§9) 4) Cell viability test: after adding detection reagent for fluorescence assay of cell growth to each well and culturing the cells in a 37° C., 5% CO2 incubator for one hour, detecting the fluorescence signal values using the multimode microplate reader, with the raw data (RFU) being used for calculation of the cytotoxicity of the compounds;
as §7, §8

HCV genotype 1a replicon = assay: Anti-HCV-1a replicon activity (luciferase, Bright-Glo); details: Hepatitis C virus, Huh-7, 72 h, read-out: EC50 against HCV-1a replicon
Method: as §3, §4, §5, §6, §7, §8
(§10) HCV 1a replicon cells, i.e., Huh7 cell line stably transfected with HCV genotype 1a replicon (provided by WuXi AppTec (Shanghai) Co., Ltd.) were used as the experimental cells. As described above for the HCV 1b replicon cell system, the HCV genotype 1a replicon cell systems were similarly prepared.
(§11) The anti-HCV-1a activities of the compounds of the present invention were tested according to the method for testing the anti-HCV-1b replicon activity in Experimental Example 1.

[2] = Cell viability test (CellTiter-Fluor) in HCV 1a replicon cells; details: human, Huh7 cells stably transfected with HCV genotype 1a replicon; HCV 1a replicon Huh7 cells, 3 days culture; read-out: CC50 (half cytotoxic concentration)
Method: as §9, §7, §8, §10, §11

[3] = Huh7 cells stably transfected with HCV genotype 1b replicon

| SMILES | EC50 (HCV genotype 1b replicon) | CC50 at 3 days [1, 3] | EC50 (HCV genotype 1a replicon) | CC50 at 3 days [2] | CC50 at 3 days [1] |
| --- | --- | --- | --- | --- | --- |
| COC(=O)N[C@H](C(=O)N1CC2(C[C@H]1c1ncc(-c3ccc4c(c3)C(F)(F)C(F)(F)c3cc(-c5cnc([C@@H]6CC7(CN6C(=O)[C@@H](NC(=O)OC)C(C)C)OCCO7)[nH]5)ccc3-4)[nH]1)OCCO2)C(C)C [Example 17, Dimethyl ((2S,2′S)-((2S,2′S)-2,2′-(5,5′-(9,9,10,10-tetrafluoro-9,10-dihydrophenanthren-2,7-diyl)bis(1H-imidazol-5,2-diyl))bis(1,4-dioxa-7-azaspiro[4.4]nonan-7,8-diyl))bis(3-methyl-1-oxobutan-2,1-diyl))dicarbamate] | 0.007 nM | > 10 nM | 0.175 nM | > 10 nM |  |
| COC(=O)N[C@H](C(=O)N1CC2(CC2)C[C@H]1c1nc(-c2ccc3c(c2)C(F)(F)C(F)(F)c2cc(-c4ccc5nc([C@@H]6CCCN6C(=O)[C@@H](NC(=O)OC)C(C)C)[nH]c5c4)ccc2-3)c[nH]1)C(C)C [Example 12, Methyl N-((2S)-1-((S)-2-(6-(7-((S)-2-(5-((S)-2-((methoxycarbonyl)amino)-3-methylbutanoyl)-5-azaspiro[2.4]heptan-6-yl)-1H-imidazol-5-yl)-9,9,10,10-tetrafluoro-dihydrophenanthren-2-yl)-1H-benzo[d]imidazol-2-yl)pyrrolidin-1-yl)-3-methyl-1-oxobutan-2-yl)carbamate] | 0.008 nM | > 10 nM | 0.061 nM | > 10 nM |  |
| COC(=O)N[C@H](C(=O)N1CCC[C@H]1c1ncc(-c2ccc3c(c2)C(F)(F)C(F)(F)c2cc(-c4cnc([C@@H]5CCCN5C(=O)[C@@H](NC(=O)OC)[C@@H](C)OC)[nH]4)ccc2-3)[nH]1)[C@@H](C)OC [Example 13] | 0.056 nM | > 10 nM |  |  |  |
| COC(=O)N[C@H](C(=O)N1CCC[C@H]1c1ncc(-c2ccc3c(c2)C(F)(F)C(F)(F)c2cc(-c4cnc([C@@H]5CCCN5C(=O)[C@@H](NC(=O)OC)C(C)(C)C)[nH]4)ccc2-3)[nH]1)C(C)(C)C [Example 7, Dimethyl (2S,2′S)-1,1′-((2S,2′S)-2,2′-(5,5′-(9,9,10,10-tetrafluoro-9,10-dihydrophenanthren-2,7-diyl)bis(1H-imidazol-5,2-diyl))bis(pyrrolidin-2,1-diyl))bis(3,3-dimethyl-1-oxobutan-2,1-diyl)dicarbamate] | 0.0063 nM | > 10 nM |  |  |  |
| COC(=O)N[C@H](C(=O)N1CCC[C@H]1c1ncc(-c2ccc3c(c2)C(F)(F)C(F)(F)c2cc(-c4cnc([C@@H]5CC6(CN5C(=O)[C@@H](NC(=O)OC)C(C)C)OCCO6)[nH]4)ccc2-3)[nH]1)C(C)C [Example 14, Methyl N-((2S)-1-((S)-2-(5-(7-((S)-2-(7-((S)-2-((methoxycarbonyl)amino)-3-methylbutanoyl)-1,4-dioxa-7-azaspiro[4.4]nonan-8-yl)-1H-imidazol-5-yl)-9,9,10,10-tetrafluoro-9,10-dihydrophenanthren-2-yl)-1H-imidazol-2-yl)pyrrolidin-1-yl)-3-methyl-1-oxobutan-2-yl)carbamate] | 0.006 nM | > 10 nM | 0.15 nM | > 10 nM |  |
| COC(=O)N[C@H](C(=O)N1[C@@H]2CC[C@@H](C2)[C@H]1c1ncc(-c2ccc3c(c2)C(F)(F)C(F)(F)c2cc(-c4cnc([C@@H]5[C@H]6CC[C@H](C6)N5C(=O)[C@@H](NC(=O)OC)C(C)C)[nH]4)ccc2-3)[nH]1)C(C)C [Example 3, Dimethyl (2S,2′S)-1,1′-((1R,1′R,3S,3′S,4S,4′S)-3,3′-(5,5′-(9,9,10,10-tetrafluoro-9,10-dihydrophenanthren-2,7-diyl)bis(1H-imidazol-5,2-diyl))bis(2-azabicyclo[2.2.1]heptan-3,2-yl))bis(3-methyl-1-oxobutan-2,1-diyl)dicarbamate] | 0.017 nM |  |  |  | > 10 nM |
| COC(=O)N[C@H](C(=O)N1CCCC1c1ncc(-c2ccc(-c3ccc4c(c3)C(F)(F)C(F)(F)c3cc(-c5ccc(-c6cnc([C@@H]7CCCN7C(=O)[C@@H](NC(=O)OC)C(C)(C)C)[nH]6)cc5)ccc3-4)cc2)[nH]1)C(C)(C)C (stereo partly drawn) [Example 2, dimethyl (2S,2′S)-1,1′-((2S,2′S)-2,2′-(5,5′-(4,4′-(9,9,10,10-tetrafluoro-9,10-dihydrophenanthren-2,7-diyl)bis(4,1-phenylene))bis(1H-imidazol-5,2-diyl))bis(pyrrolidin-2,1-diyl))bis(3,3-dimethyl-1-oxobutan-2,1-diyl)dicarbamate] | 0.017 nM | > 10 nM |  |  |  |
| COC(=O)N[C@H](C(=O)N1[C@@H]2CC[C@@H](C2)[C@H]1c1ncc(-c2ccc3c(c2)C(F)(F)C(F)(F)c2cc(-c4cnc([C@@H]5[C@H]6CC[C@H](C6)N5C(=O)[C@@H](NC(=O)OC)[C@@H](C)OC)[nH]4)ccc2-3)[nH]1)[C@@H](C)OC [Example 6, Dimethyl (2S,2′S,3R,3′R)-1,1′-((1R,1′R,3S,3′S,4S,4′S)-3,3′-(5,5′-(9,9,10,10-tetrafluoro-9,10-dihydrophenanthren-2,7-diyl)bis(1H-imidazol-5,2-diyl))bis(2-azabicyclo[2.2.1]heptan-3,2-diyl))bis(3-methoxy-1-oxobutan-2,1-diyl)dicarbamate] | 0.014 nM | > 10 nM |  |  |  |
| COC(=O)N[C@H](C(=O)N1[C@@H]2CC[C@@H](C2)[C@H]1c1ncc(-c2ccc3c(c2)C(F)(F)C(F)(F)c2cc(-c4cnc([C@@H]5[C@H]6CC[C@H](C6)N5C(=O)[C@@H](NC(=O)OC)C(C)(C)C)[nH]4)ccc2-3)[nH]1)C(C)(C)C [Example 4, Dimethyl (2S,2′S)-1,1′-((1R,1′R,3S,3′S,4S,4′S)-3,3′-(5,5′-(9,9,10,10-tetrafluoro-9,10-dihydrophenanthren-2,7-diyl)bis(1H-imidazol-5,2-diyl))bis(2-azabicyclo[2.2.1]heptan-3,2-yl))bis(3,3-dimethyl-1-oxobutan-2,1-diyl)dicarbamate] | 0.047 nM | > 10 nM |  |  |  |
| COC(=O)N[C@H](C(=O)N1CCC[C@H]1c1ncc(-c2ccc3c(c2)C(F)(F)C(F)(F)c2cc(-c4cnc([C@@H]5CCCN5C(=O)[C@@H](NC(=O)OC)[C@@H](C)O)[nH]4)ccc2-3)[nH]1)[C@@H](C)O [Example 8, Dimethyl ((2S,2′S,3R,3′R)-((2S,2′S)-2,2′-(5,5′-(9,9,10,10-tetrafluoro-9,10-dihydrophenanthren-2,7-diyl)bis(1H-imidazol-5,2-diyl))bis(pyrrolidin-2,1-diyl))bis(3-hydroxy-1-oxobutan-2,1-diyl))dicarbamate] | 0.058 nM | > 10 nM |  |  |  |
| COC(=O)N[C@H](C(=O)N1[C@@H]2CC[C@@H](C2)[C@H]1c1ncc(-c2ccc3c(c2)C(F)(F)C(F)(F)c2cc(-c4cnc([C@@H]5[C@H]6CC[C@H](C6)N5C(=O)[C@@H](NC(=O)OC)[C@@H](C)O)[nH]4)ccc2-3)[nH]1)[C@@H](C)O [Example 5, Dimethyl (2S,2′S,3R,3′R)-1,1′-((1R,1′R,3S,3′S,4S,4′S)-3,3′-(5,5′-(9,9,10,10-tetrafluoro-9,10-dihydrophenanthren-2,7-diyl)bis(1H-imidazol-5,2-diyl))bis(2-azabicyclo[2.2.1]heptan-3,2-diyl))bis(3-hydroxy-1-oxobutan-2,1-diyl)dicarbamate] | 0.041 nM |  |  |  | > 10 nM |
